Measurements reported in patent publication US7223728B2, “Synergistic use of thiazolidinediones with glucagon-like peptide-1 and agonists thereof to treat metabolic instability associated with non-insulin dependent diabetes” (Eli Lilly and Company, priority 1999, dated 2007).

System: Zucker Diabetic Fatty (ZDF) rats
Assay: Seven-week co-administration study of TZD 300512 and IP^7-GLP-1 (7–37)OH in diabetic rats (heart weight, blood glucose, insulin)
Type: in vivo, rat
Text: This study was designed to evaluate the effects of using a combination of sub-optimal doses of a TZD and a GLP-1 agonist on glucose metabolism and in addition, if this combination therapy would prevent occurrence of heart hypertrophy that is associated with optimal doses of TZD derivatives. Eight week old Zucker Diabetic Fatty (Genetic Models, Inc.) rats (ZDF) weighing about 350 grams were used in this study. Animals were allowed free access to water, and Purina Formulab 5008 chow. TZD 300512 was administered as 0.00006% diet admixture while IP^7-GLP-1 (7–37)OH, a GLP-1 agonist, was infused subcutaneously at a constant rate of 0.06 ug/min via implant Aztet pumps. The duration of study was seven weeks, and food consumption and body weight were monitored daily. Plasma glucose and insulin levels were measured weekly, and Glycated hemoglobin A1c was measured at the end of the study. Heart weights also were measured at the end of the study.
Table 1 summarizes final rat weight, daily food intake, plasma glucose levels, plasma insulin levels, Hbalc, and heart weight. Values were rounded off to the nearest decimal point.

[1] = ZDF rats, TZD 0.00006% diet admixture, IP^7 0.06 ug/min subcutaneous infusion, seven weeks
[2] = ZDF rats, measured at the end of the seven-week study

For “4-imidazopropionyl-GLP-1 (7–37)OH [IP^7]”, the “Glucose (plasma glucose level)” value (ZDF rats, fed state, TZD 0.00006% diet admixture, IP^7 0.06 ug/min subcutaneous infusion, seven weeks) was 367.5 ± 58.0 mg/dL, the “Food Int (daily food intake)” value [1] was 30.4 ± 1.2 g/day and the “Insulin (plasma insulin level)” value [1] was 13.0 ± 2.9 ng/mL. The “Weight (final rat weight)” value [1] was 414.7 ± 7.9 g, the “Hbalc (glycated hemoglobin A1c)” value [2] was 9.5 ± 1.0% and the Heart wt [2] was 1.2 ± 0.03 g. The “Fed state plasma-glucose level as % of control levels” value (diabetic ZDF rats, 42-day treatment period) was 57.5 % of control levels and the “Course of plasma glucose levels over the 42-day treatment period” value (diabetic rats, 42-day treatment) was “increased”.
